Test results: patent publication US8604053B2, “TRPV1 antagonists” (AbbVie Inc., priority 2008, dated 2013)

Tests used:
[1] = Rat telemetry protocol, core body temperature; type: in vivo; settings: core body temperature of rats one hour post dosing, 100 μmol/kg p.o., relative to vehicle
Summary of the method: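 Male Sprague Dawley rats (225–250 g) with intraperitoneal telemetry transmitters, 2-week recovery. Single oral 100 μmol/kg dose in 10% EtOH/20% Tween-80/70% PEG-400; core body temperature recorded every 15 min over 24 h.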

CYP2C9 = molecular target: T1, CYP2C9 (Homo sapiens, UniProt P11712); assay: CYP2C9 inhibition assay; type: in vitro ADME; settings: human liver microsomes, substrate Luciferin-H; for inhibition at 25 min, 2.2 µM: pH 7.4, probe Luciferin-H (100 μM final), read-out: CYP2C9 % inh @ 2.2 μM
T1 construct: human liver microsomes (BD Gentest); tissue BD Gentest; host or cells: human liver microsomes
T1 sequence (P11712 whole entry): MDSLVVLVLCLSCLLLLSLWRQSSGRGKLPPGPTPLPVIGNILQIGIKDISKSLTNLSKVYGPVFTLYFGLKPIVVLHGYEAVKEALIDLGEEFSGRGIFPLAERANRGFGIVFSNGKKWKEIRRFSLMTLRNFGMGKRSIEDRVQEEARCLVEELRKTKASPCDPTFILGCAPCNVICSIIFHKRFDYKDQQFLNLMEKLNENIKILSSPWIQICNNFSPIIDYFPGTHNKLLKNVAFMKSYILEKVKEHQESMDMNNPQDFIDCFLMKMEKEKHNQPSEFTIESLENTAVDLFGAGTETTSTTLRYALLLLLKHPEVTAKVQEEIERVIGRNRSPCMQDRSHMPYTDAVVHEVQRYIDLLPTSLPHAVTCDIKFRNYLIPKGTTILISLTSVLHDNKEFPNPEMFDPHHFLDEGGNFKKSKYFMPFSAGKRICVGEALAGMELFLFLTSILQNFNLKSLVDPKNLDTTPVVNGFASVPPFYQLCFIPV
Experimental: (§1) Stock solutions of test compounds were assayed in 96-well format for their ability to inhibit CYP2C9, CYP2D6, or CYP3A4 mediated metabolism of test substrates. Luciferin-H was used as the substrate for CYP2C9; 3-[2-(N,N-diethyl-N-methylammonium)ethyl]-7-methoxy-4-methylcoumarin (AMMC) was used as the substrate for CYP2D6; 7-benzyloxyquiniline (BZQ) was used as the substrate for CYP3A4. For each subtype, positive controls (sulphaphenazole in the case of CYP2C9; quinidine in the case of CYP2D6, ketoconazole in the case of CYP3A4) were used to validate assay results run in duplicate.
(§2) Pre-Incubation Mixture Preparation for CYP2C9 and CYP2D6: A pre-incubation mixture was prepared by combining 100 mM phosphate buffer (9.12 mL; pH 7.4), human liver microsomes (BD Gentest, 240 itt; final concentration: 0.4 mg/mL), and 10 mM nicotinamide adenine dinucleotide phosphate in 65.4 mM MgCl2 hexahydrate (120 μL; final concentration: 125 μM and 818 μM, respectively). To this was mixture is added a ‘regeneration’ mixture (120 μL) of 333 mM glucose-6-phosphate and 40 U/mL glucose-6-phosphate dehydrogenase in 5 mM sodium citrate (final concentration: 4 mM, 0.5 U/mL, and 0.06 mM, respectively).
Substrate Mixture Preparation for CYP2C9: To a solution of 25 mM phosphate buffer, (2.16 mL, pH 7.4) was added 5 mM Luciferin-H (Promega P450 Glo Assay V8792, 240 μL; final solution concentration 0.5 mM, final assay concentration 100 μM).
CYP2C9 Inhibiton Assay: To each well in the assay plate containing varying concentrations of test compound or control compound in DMSO (10 μL) Pre-Incubation Mixture (40 itt) was added to the wells and the assay plate was pre-incubated for 10 minutes at 37° C., with shaking or rocking. CYP2C9 Substrate Mixture (10 μL) was added to all wells and the assay plate was incubated for an additional 25 minutes at 37° C., with shaking or rocking. Final DMSO concentration was 1%. Luciferin-H detection reagent (Promega kit V8792, 50 μL) was added to all wells. The plate was then vortexed at ambient temperature for between 20 minutes and 2 hours, and the luminescence of each well was then read and recorded.

CYP2D6 = molecular target: T2, CYP2D6 (Homo sapiens, UniProt P10635); assay: in vitro; type: in vitro ADME; settings: microsomes; for inhibition at 25 min, 2.2 µM: human, pH 7.4
T2 construct: human liver microsomes (BD Gentest); tissue BD Gentest; host or cells: human liver microsomes
T2 sequence (P10635 whole entry): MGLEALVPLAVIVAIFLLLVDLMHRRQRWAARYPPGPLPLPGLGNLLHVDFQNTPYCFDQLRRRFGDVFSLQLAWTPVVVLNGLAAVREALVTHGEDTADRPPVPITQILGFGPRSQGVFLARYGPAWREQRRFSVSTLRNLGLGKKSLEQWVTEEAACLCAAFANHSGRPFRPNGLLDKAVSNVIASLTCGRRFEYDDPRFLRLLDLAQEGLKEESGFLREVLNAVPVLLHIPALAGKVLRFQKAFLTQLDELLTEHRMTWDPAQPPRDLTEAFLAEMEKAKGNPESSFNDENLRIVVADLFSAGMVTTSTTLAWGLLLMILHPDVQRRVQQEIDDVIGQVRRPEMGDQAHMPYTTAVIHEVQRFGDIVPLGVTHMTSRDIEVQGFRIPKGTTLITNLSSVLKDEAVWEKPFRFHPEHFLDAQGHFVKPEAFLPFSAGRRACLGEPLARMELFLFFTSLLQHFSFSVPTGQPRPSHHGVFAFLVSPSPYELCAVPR
Experimental: as §1, §2
Substrate Mixture Preparation for CYP2D6: To a solution of 100 mM phosphate buffer, (2.80 mL, pH 7.4) was added 10 mM AMMC in acetonitrile (14 itt; final solution concentration 0.05 mM, final assay concentration 10 μM).
CYP2D6 Inhibiton Assay: To each well in the assay plate containing varying concentrations of test compound or control compound in DMSO (10 μL), Pre-Incubation Mixture (40 μL) was added to the wells and the assay plate was pre-incubated for 10 minutes at 37° C., with shaking or rocking. A pre-read of each well was performed at 390 nm and 460 nm extinction/emission. CYP2D6 Substrate Mixture (10 μL) was added to all wells and the assay plate was incubated for an additional […] at 37° C., with shaking or rocking. Final DMSO concentration was 1%. A post-read of each well was then performed at 390 nm and 460 nm extinction/emission.

[2] = Assessment of hemodynamic profile in anesthetized rat; type: in vivo; settings: i.v. infusion 3, 10 and 30 mg/kg/30 minutes/dose, relative to vehicle control group
Experimental: Male Sprague-Dawley rats were anesthetized with Inactin, instrumented, and allowed to stabilize. Following a 30 minute baseline period, test compound was infused via intravenous administration at 3, 10, and 30 mg/kg/30 minutes/dose in a low volume PEG-400 vehicle (1 mL/kg) or 20:40:40 dimethylacetamide:propylene glycol:PEG-400 vehicle (1 mL/kg). A separate group of animals received infusion of vehicle alone. Mean arterial pressure (MAP) and heart rate (HR) were observed and recorded.

Compound	Δ Temp (° C.) [1]	inhibition at 25 min, 2.2 µM (CYP2C9)	inhibition at 25 min, 2.2 µM (CYP2D6)	Change in MAP or HR ≧ 15% ? [2]	CYP2C9 % inh @ 2.2 μM (CYP2C9)	CYP2D6 % inh @ 2.2 μM) (CYP2D6; 2.2 µM)
Cc1cc2c(NC(=O)N[C@@H]3CC(CF)(CF)Oc4cc(F)ccc43)cccc2cn1 [Example 96, N-[(4R)-7-fluoro-2,2-bis(fluoromethyl)-3,4-dihydro-2H-chromen-4-yl]-N′-(3-methylisoquinolin-5-yl)urea]	0.0 °C	4.1%	7.9%	Yes (An observed increase or decrease of greater than 15% in MAP (mean arterial pressure) or HR (heart rate) in one or more of the animals in the test group relative to the vehicle control group is indicated as “Yes” in the table)	–	–
Cc1cc2c(NC(=O)N[C@@H]3C[C@@](C)(C(F)F)Oc4cc(Cl)ccc43)cccc2cn1 (single isomer, unassigned) [Example 124]	0.0 °C	1.2%	8.4%	No (an observed increase or decrease of less than or equal to 15% in MAP (mean arterial pressure) or HR (heart rate) in the test group of animals relative to the vehicle control group is indicated as “No” in the table)	–	–
Cc1cc2c(NC(=O)N[C@@H]3CC(C)(C)Oc4cc(C(F)(F)F)ccc43)cccc2cn1 [Example 118, N-[(4R)-2,2-dimethyl-7-(trifluoromethyl)-3,4-dihydro-2H-chromen-4-yl]-N′-(3-methylisoquinolin-5-yl)urea]	0.0 °C	7.8%	21%	Yes (An observed increase or decrease of greater than 15% in MAP (mean arterial pressure) or HR (heart rate) in one or more of the animals in the test group relative to the vehicle control group is indicated as “Yes” in the table)	–	–
Cc1cc2c(NC(=O)N[C@@H]3CCOc4c(OC(F)(F)F)cccc43)cccc2cn1 [Example 66, N-(3-methylisoquinolin-5-yl)-N′-[(4R)-8-(trifluoromethoxy)-3,4-dihydro-2H-chromen-4-yl]urea]	−0.9 °C	4.5%	9.5%	No (an observed increase or decrease of less than or equal to 15% in MAP (mean arterial pressure) or HR (heart rate) in the test group of animals relative to the vehicle control group is indicated as “No” in the table)	–	–
Cc1cc2c(NC(=O)N[C@@H]3CC(CF)(CF)Oc4c(F)cc(F)cc43)cccc2cn1 [Example 120, N-[(4R)-6,8-difluoro-2,2-bis(fluoromethyl)-3,4-dihydro-2H-chromen-4-yl]-N′-(3-methylisoquinolin-5-yl)urea]	−0.5 °C	11%	6.2%	No (an observed increase or decrease of less than or equal to 15% in MAP (mean arterial pressure) or HR (heart rate) in the test group of animals relative to the vehicle control group is indicated as “No” in the table)	–	–
CCC1(CC)C[C@@H](NC(=O)Nc2cccc3cnccc23)c2cc(F)ccc2O1 [Example 28, N-[(4R)-2,2-diethyl-6-fluoro-3,4-dihydro-2H-chromen-4-yl]-N′-isoquinolin-5-ylurea]	−0.2 °C	35%	98%	Yes (An observed increase or decrease of greater than 15% in MAP (mean arterial pressure) or HR (heart rate) in one or more of the animals in the test group relative to the vehicle control group is indicated as “Yes” in the table)	–	–
Cc1cc2c(NC(=O)N[C@@H]3CC(CF)(CF)Oc4ccc(F)cc43)cccc2cn1 [Example 65, N-[(4R)-6-fluoro-2,2-bis(fluoromethyl)-3,4-dihydro-2H-chromen-4-yl]-N′-(3-methylisoquinolin-5-yl)urea]	0.0 °C	0%	12%	No (an observed increase or decrease of less than or equal to 15% in MAP (mean arterial pressure) or HR (heart rate) in the test group of animals relative to the vehicle control group is indicated as “No” in the table)	–	–
CC1(C)C[C@@H](NC(=O)Nc2cccc3cnccc23)c2cc(F)ccc2O1 [Example 5, N-[(4R)-6-fluoro-2,2-dimethyl-3,4-dihydro-2H-chromen-4-yl]-N′-isoquinolin-5-ylurea]	−0.2 °C	55%	100%	Yes (An observed increase or decrease of greater than 15% in MAP (mean arterial pressure) or HR (heart rate) in one or more of the animals in the test group relative to the vehicle control group is indicated as “Yes” in the table)	–	–
N-[(4R)-6,8-difluoro-2,2-dimethyl-3,4-dihydro-2H-chromen-4-yl]-N-(3-methylisoquinolin-5-yl)urea [Example 98]	0.0 °C	–	–	Yes (An observed increase or decrease of greater than 15% in MAP (mean arterial pressure) or HR (heart rate) in one or more of the animals in the test group relative to the vehicle control group is indicated as “Yes” in the table)	8.4%	3.7%
Cc1cc2c(NC(=O)N[C@@H]3CC(C)(C)Oc4cc(F)ccc43)cccc2cn1 [Example 95, N-[(4R)-7-fluoro-2,2-dimethyl-3,4-dihydro-2H-chromen-4-yl]-N′-(3-methylisoquinolin-5-yl)urea]	0.0 °C	0%	3.5%	Yes (An observed increase or decrease of greater than 15% in MAP (mean arterial pressure) or HR (heart rate) in one or more of the animals in the test group relative to the vehicle control group is indicated as “Yes” in the table)	–	–
Cc1cc2c(NC(=O)N[C@@H]3CC(CF)(CF)Oc4ccccc43)cccc2cn1 [Example 101, N-[(4R)-2,2-bis(fluoromethyl)-3,4-dihydro-2H-chromen-4-yl]-N′-(3-methylisoquinolin-5-yl)urea]	0.0 °C	11%	11%	Yes (An observed increase or decrease of greater than 15% in MAP (mean arterial pressure) or HR (heart rate) in one or more of the animals in the test group relative to the vehicle control group is indicated as “Yes” in the table)	–	–
Cc1cc2c(NC(=O)N[C@@H]3CC(C)(C)Oc4c3ccc(F)c4F)cccc2cn1 [Example 113, N-[(4R)-7,8-difluoro-2,2-dimethyl-3,4-dihydro-2H-chromen-4-yl]-N′-(3-methylisoquinolin-5-yl)urea]	0.0 °C	7.6%	0%	Yes (An observed increase or decrease of greater than 15% in MAP (mean arterial pressure) or HR (heart rate) in one or more of the animals in the test group relative to the vehicle control group is indicated as “Yes” in the table)	–	–
